Laboratory results as given in PMC11594716, “Rhodanine–Piperazine Hybrids as Potential VEGFR, EGFR, and HER2 Targeting Anti-Breast Cancer Agents” (International Journal of Molecular Sciences, 2024).

Legend:
Type in all cases: cell-based, human
[1] = tested on: MDA-MB-468 cell line; experiment: MTT cytotoxicity assay, MDA-MB-468 breast cancer cells; conditions: for Selectivity index SI MDA-MB-468: IC50(BJ)/IC50(MDA-MB-468); for IC50: MTT, 48 h incubation
Experimental: (§1) Cytotoxicity of tested compounds was evaluated against breast cancer cell lines (MDA-MB-468, MDA-MB-231, MCF-7, and T47D) and normal human fibroblast BJ cell line as a control. All tested cell lines were obtained from the American Type Culture Collection (ATCC, Manassas, VA, USA). MDA-MB-468 and MDA-MB-231 were cultured in F12-K medium (Corning, New York City, NY, USA), MCF-7 and BJ in EMEM medium (Corning, New York City, NY, USA), and T47D in RPMI medium (Corning, New York City, NY, USA). All of these culture media were supplemented with 10% heat-inactivated FBS (PAN-Biotech, Aidenbach, Germany) and antibiotics (100 U/mL of penicillin, 100 μg/mL of streptomycin, and 0.25 μg/mL amphotericin B, respectively; Sigma-Aldrich, St. Louis, MO, USA) in a humidified 5% CO2 atmosphere at 37 °C. The cells were used exclusively for 10 passages.
(§2) The cells were seeded in 96-well plates at a concentration of 5 × 10^4 cells/mL and incubated at 37 °C with 5% CO2 air. When 70–80% culture confluence was achieved the tested compounds were added. […] The cell viability assessment was measured using the MTT assay (Invitrogen, Waltham, MA, USA) based on the ability of living cells to reduce […] tetrazolium salt, by cellular dehydrogenases, to water-insoluble purple formazan crystals. MTT solution (4 mg/mL) was added to the culture after 48 h of incubation with the tested compounds. Following 4 h of incubation, the medium with MTT salt was removed and the obtained crystals were dissolved in DMSO. The solution absorbency was measured at 570 nm using a PowerWave™ microplate spectrophotometer (Bio-Tek Instruments, Winooski, VT, USA). Each experiment was performed twice with measurement in triplicate. The IC50 values were determined using the AAT Bioquest IC50 calculator with a four parameter logistic regression model (AAT Bioquest, Inc. Pleasanton, CA, USA (14 April 2024). Quest Graph™ IC50 Calculator. AAT Bioquest. https://www.aatbio.com/tools/ic50-calculator, accessed on 12 October 2024).

[2] = tested on: MDA-MB-231 cell line; experiment: MTT cytotoxicity assay, MDA-MB-231 breast cancer cells; conditions: for Selectivity index SI MDA-MB-231: IC50(BJ)/IC50(MDA-MB-231); for IC50: MTT, 48 h incubation
Experimental: as §1, §2

[3] = tested on: MCF-7 cell line; experiment: MTT cytotoxicity assay, MCF-7 breast cancer cells; conditions: for Selectivity index SI MCF-7: IC50(BJ)/IC50(MCF-7); for IC50: MTT, 48 h incubation
Experimental: as §1, §2

[4] = tested on: T47D cell line; experiment: MTT cytotoxicity assay, T47D breast cancer cells; conditions: for Selectivity index SI T47D: IC50(BJ)/IC50(T47D); for IC50: MTT, 48 h incubation
Experimental: as §1, §2

Molecule	Selectivity index SI MDA-MB-468 [1]	IC50 [1]	Selectivity index SI MDA-MB-231 [2]	IC50 [2]	Selectivity index SI MCF-7 [3]	IC50 [3]	Selectivity index SI T47D [4]	IC50 [4]	IC50 ([1]; Homo sapiens, MDA-MB-468)	IC50 ([2]; Homo sapiens, MDA-MB-231)	IC50 ([3]; Homo sapiens, MCF7)	IC50 ([4]; Homo sapiens, T47D)
5-{[4-(3-Fluoromethylphenyl)piperazin-1-yl]methylidene}-2-thioxo-1,3-thiazolidin-4-one [Compound 9]	3.17	63 µM	1	> 200 µM	2.74	73 µM	1	> 200 µM	–	–	–	–
O=C1NC(=S)SC1=CN1CCN(c2ccc(Cl)cc2)CC1 [Compound 5, 5-{[4-(4-Chlorophenyl)piperazin-1-yl]methylidene}-2-thioxo-1,3-thiazolidin-4-one]	1.19	–	1	–	1	–	1	–	168 µM	> 200 µM	> 200 µM	> 200 µM
O=C1NC(=S)SC1=CN1CCN(c2ccc([N+](=O)[O-])cc2)CC1 [Compound 6, 5-{[4-(4-Nitrophenyl)piperazin-1-yl]methylidene}-2-thioxo-1,3-thiazolidin-4-one]	3.7	–	2.17	–	1	–	1.08	–	54 µM	92 µM	> 200 µM	186 µM
O=C1NC(=S)SC1=CN1CCN(c2cccc(Cl)c2)CC1 [Compound 7, 5-{[4-(3-Chlorophenyl)piperazin-1-yl]methylidene}-2-thioxo-1,3-thiazolidin-4-one]	2.1	–	1.27	–	1	–	1	–	95 µM	157 µM	> 200 µM	> 200 µM
O=C1NC(=S)SC1=CN1CCN(c2cccc(F)c2)CC1 [Compound 8, 5-{[4-(3-Fluorophenyl)piperazin-1-yl]methylidene}-2-thioxo-1,3-thiazolidin-4-one]	1	–	1.29	–	1	–	1	–	> 200 µM	155 µM	> 200 µM	> 200 µM
O=C1NC(=S)SC1=CN1CCN(c2ccc(Cl)c(Cl)c2)CC1 [Compound 10, 5-{[4-(3,4-Dichlorophenyl)piperazin-1-yl]methylidene}-2-thioxo-1,3-thiazolidin-4-one]	3.63	–	1.90	–	6.45	–	2.2	–	55 µM	105 µM	31 µM	91 µM
COc1cccc(N2CCN(C=C3SC(=S)NC3=O)CC2)c1 [Compound 11, 5-{[4-(3-Methoxyphenyl)piperazin-1-yl]methylidene}-2-thioxo-1,3-thiazolidin-4-one]	2.17	–	1.25	–	1	–	1	–	92 µM	160 µM	> 200 µM	> 200 µM
O=C1NC(=S)SC1=CN1CCN(C(c2ccc(F)cc2)c2ccc(F)cc2)CC1 [Compound 12, 5-({4-[Bis(4-fluorophenyl)methyl]piperazin-1-yl}methylidene)-2-thioxo-1,3-thiazolidin-4-one]	5.41	–	1.36	–	5.56	–	1	–	37 µM	147 µM	36 µM	> 200 µM
O=C1C(=CN2CCN(c3ccc(Cl)cc3)CC2)SC(=S)N1c1ccccc1 [Compound 13, 5-{[4-(4-Chlorophenyl)piperazin-1-yl]methylidene}-3-phenyl-2-thioxo-1,3-thiazolidin-4-one]	1.12	–	1.38	–	2.99	–	1	–	179 µM	145 µM	67 µM	> 200 µM
O=C1C(=CN2CCN(c3cccc(Cl)c3)CC2)SC(=S)N1c1ccccc1 [Compound 14, 5-{[4-(3-Chlorophenyl)piperazin-1-yl]methylidene}-3-phenyl-2-thioxo-1,3-thiazolidin-4-one]	1	–	1	–	1	–	1	–	> 200 µM	> 200 µM	> 200 µM	> 200 µM
O=C1C(=CN2CCN(C(c3ccc(F)cc3)c3ccc(F)cc3)CC2)SC(=S)N1c1ccccc1 [Compound 15, 5-({4-[Bis(4-fluorophenyl)methyl]piperazin-1-yl}methylidene)-3-phenyl-2-thioxo-1,3-thiazolidin-4-one]	4.26	–	2.63	–	4.44	–	1.06	–	47 µM	76 µM	45 µM	189 µM
O=C1C(=CN2CCN(c3cccc(F)c3)CC2)SC(=S)N1c1ccccc1 [Compound 16, 5-{[4-(3-Fluorophenyl)piperazin-1-yl]methylidene}-3-phenyl-2-thioxo-1,3-thiazolidin-4-one]	1	–	1.12	–	1	–	1	–	> 200 µM	179 µM	> 200 µM	> 200 µM
COc1cccc(N2CCN(C=C3SC(=S)N(c4ccccc4)C3=O)CC2)c1 [Compound 17, 5-{[4-(3-Methoxyphenyl)piperazin-1-yl]methylidene}-3-phenyl-2-thioxo-1,3-thiazolidin-4-one]	3.45	–	1.69	–	1.18	–	1	–	58 µM	118 µM	169 µM	> 200 µM
